The structures appear in SMILES notation.

This assay deals with γ-secretase activity. Briefly: Screening for γ-secretase-modulating activity in SKN neuroblastoma cells carrying APP swedish mutant. Conditions: read-out: IC50 on the γ-secretase activity, Activity range. The class given is cell-based. The procedure:
Screening was carried out using SKN neuroblastoma cells carrying the APP-“swedish mutant” (point mutations at position 595 and 596, numbering based on APP695) grown in DMEM/NUT-mix F12 (HAM) provided by Gibco (cat no. 31330-38) containing 5% Serum/Fe supplemented with 1% non-essential amino acids, 100 U/ml Pen/Strep.
Cells were grown to near confluency.
The screening was performed using the assay as described in Citron et al (1997) Nature Medicine 3: 67.
IC50-Values of Selected Compounds of the Invention on the γ-Secretase Activity.
As to `CC(C)c1ccc(COc2cc(CC(=O)O)cc(-c3ccc(C(F)(F)F)cc3)c2)cc1` [II, [5-(4-Isopropyl-benzyloxy)-4′-trifluoromethyl-biphenyl-3-yl]-acetic acid], the IC50 lay within 1 to 10 µM. Turning to `CS(=O)(=O)c1ccc(COc2cc(CC(=O)O)cc(-c3ccc(C(F)(F)F)cc3)c2)cc1` [IV, [5-(4-Methanesulfonyl-benzyloxy)-4′-trifluoromethyl-biphenyl-3-yl]-acetic acid], the IC50 fell in the range of 10 to 100 µM. Under `O=C(O)Cc1cc(OCc2ccccc2C(F)(F)F)cc(-c2ccc(C(F)(F)F)cc2)c1` [L, [4′-Trifluoromethyl-5-(2-trifluoromethyl-benzyloxy)-biphenyl-3-yl]-acetic acid] stands 1 to 10 µM. Under `O=C(O)Cc1cc(OCCc2ccccc2)cc(-c2ccc(C(F)(F)F)cc2)c1` [LI, (5-Phenethyloxy-4′-trifluoromethyl-biphenyl-3-yl)-acetic acid] stands 1 to 10 µM. Under `O=C(O)Cc1cc(OCC2CCCCO2)cc(-c2ccc(C(F)(F)F)cc2)c1` (stereo not drawn) [LII, [5-(Tetrahydro-pyran-2-ylmethoxy)-4′-trifluoromethyl-biphenyl-3-yl]-acetic acid] stands 100 to 300 µM; under `CN(C)C(=O)c1ccc(COc2cc(CC(=O)O)cc(-c3ccc(C(F)(F)F)cc3)c2)cc1` [LIII, [5-(4-Dimethylcarbamoyl-benzyloxy)-4′-trifluoromethyl-biphenyl-3-yl]-acetic acid], 100 to 300 µM; under `CNC(=O)c1ccc(COc2cc(CC(=O)O)cc(-c3ccc(C(F)(F)F)cc3)c2)cc1` [LIV, [5-(4-Methylcarbamoyl-benzyloxy)-4′-trifluoromethyl-biphenyl-3-yl]-acetic acid], 100 to 300 µM. Turning to `O=C(O)Cc1cc(OCc2cccc(Cl)c2)cc(-c2ccc(C(F)(F)F)cc2)c1` [LIX, [5-(3-Chloro-benzyloxy)-4′-trifluoromethyl-biphenyl-3-yl]-acetic acid], the half-maximal inhibitory concentration (IC50) is 1 to 10 µM. Under `O=C(O)Cc1cc(OCc2ccc(C(=O)N3CCCC3)cc2)cc(-c2ccc(C(F)(F)F)cc2)c1` [LV, {5-[4-(Pyrrolidine-1-carbonyl)-benzyloxy]-4′-trifluoromethyl-biphenyl-3-yl}-acetic acid] stands 10 to 100 µM; under `O=C(O)Cc1cc(OCc2ccc(S(=O)(=O)N3CCOCC3)cc2)cc(-c2ccc(C(F)(F)F)cc2)c1` [LVI, {5-[4-(Morpholine-4-sulfonyl)-benzyloxy]-4′-trifluoromethyl-biphenyl-3-yl}-acetic acid], 10 to 100 µM. As for `O=C(O)Cc1cc(OCc2ccc(OC(F)(F)F)cc2)cc(-c2ccc(C(F)(F)F)cc2)c1` [LVII, [5-(4-Trifluoromethoxy-benzyloxy)-4′-trifluoromethyl-biphenyl-3-yl]-acetic acid], the figure is 1 to 10 µM. Under `O=C(O)Cc1cc(OCc2ccccc2Cl)cc(-c2ccc(C(F)(F)F)cc2)c1` [LVIII, [5-(2-Chloro-benzyloxy)-4′-trifluoromethyl-biphenyl-3-yl]-acetic acid] stands 1 to 10 µM. Turning to `Cc1ccc(COc2cc(CC(=O)O)cc(-c3ccc(C(F)(F)F)cc3)c2)cc1` [LX, [5-(4-Methyl-benzyloxy)-4′-trifluoromethyl-biphenyl-3-yl]-acetic acid], the concentration for half-maximal inhibition (IC50) was 1 to 10 µM.

For the compound `O=C(O)Cc1cc(OCc2ccccc2)cc(-c2ccccc2)c1` [VII, (5-Benzyloxy-biphenyl-3-yl)-acetic acid], the IC50 lay in the range of 1 to 10 µM. Under `O=C(O)Cc1cc(OCc2ccccc2)cc(-c2cc(C(F)(F)F)cc(C(F)(F)F)c2)c1` [XI, (5-Benzyloxy-3′,5′-bis-trifluoromethyl-biphenyl-3-yl)-acetic acid] stands 1 to 10 µM; under `O=C(O)Cc1cc(OCc2ccccc2)cc(-c2ccc(Cl)c(Cl)c2)c1` [XII, (5-Benzyloxy-3′,4′-dichloro-biphenyl-3-yl)-acetic acid], 1 to 10 µM; under `COc1cccc(-c2cc(CC(=O)O)cc(OCc3ccccc3)c2)c1` [XIV, (5-benzyloxy-3′-methoxy-biphenyl-3-yl)-acetic Acid], 10 to 100 µM. For `O=C(O)Cc1cc(OCc2ccc(Cl)cc2)cc(-c2ccc(C(F)(F)F)cc2)c1` [XLI, [5-(4-Chloro-benzyloxy)-4′-trifluoromethyl-biphenyl-3-yl]-acetic acid], the half-maximal inhibitory concentration (IC50) lay in the range of 1 to 10 µM. For `Cc1cc(COc2cc(CC(=O)O)cc(-c3ccc(C(F)(F)F)cc3)c2)no1` [XLIII, [5-(5-Methyl-isoxazol-3-ylmethoxy)-4′-trifluoromethyl-biphenyl-3-yl]-acetic acid], the IC50 lay in the range of 10 to 100 µM. As for `O=C(O)Cc1cc(OCc2cccc(C(F)(F)F)c2)cc(-c2ccc(C(F)(F)F)cc2)c1` [XLIX, [4′-Trifluoromethyl-5-(3-trifluoromethyl-benzyloxy)-biphenyl-3-yl]-acetic acid], the figure is 1 to 10 µM. As for `O=C(O)Cc1cc(OCC2CCOCC2)cc(-c2ccc(C(F)(F)F)cc2)c1` [XLV, [5-(Tetrahydro-pyran-4-ylmethoxy)-4′-trifluoromethyl-biphenyl-3-yl]-acetic acid], the figure is 10 to 100 µM; as for `O=C(O)Cc1cc(OCc2ccc(C(=O)N3CCOCC3)cc2)cc(-c2ccc(C(F)(F)F)cc2)c1` [XLVIII, {5-[4-(Morpholine-4-carbonyl)-benzyloxy]-4′-trifluoromethyl-biphenyl-3-yl}-acetic acid], 10 to 100 µM. As for `NC(=O)c1cccc(-c2cc(CC(=O)O)cc(OCc3ccccc3)c2)c1` [XV, (5-benzyloxy-3′-carbamoyl-biphenyl-3-yl)-acetic Acid], the figure is 10 to 100 µM. As for `O=C(O)Cc1cc(OCc2ccccc2)cc(-c2cccc(O)c2)c1` [XVI, (5-benzyloxy-3′-hydroxy-biphenyl-3-yl)-acetic Acid], the 50% inhibitory concentration (IC50) is 10 to 100 µM. On to `CS(=O)(=O)c1ccc(-c2cc(CC(=O)O)cc(OCc3ccccc3)c2)cc1` [XVII, (5-benzyloxy-4′-methanesulfonyl-biphenyl-3-yl)-acetic Acid], for which the 50% inhibitory concentration (IC50) was 10 to 100 µM. As for `NS(=O)(=O)c1ccc(-c2cc(CC(=O)O)cc(OCc3ccccc3)c2)cc1` [XVIII, (5-benzyloxy-4′-sulfamoyl-biphenyl-3-yl)-acetic Acid], the figure is 10 to 100 µM. As for `O=C(O)Cc1cc(OCc2ccccc2)cc(-c2ccc(F)cc2)c1` [XXII, (5-Benzyloxy-4′-fluoro-biphenyl-3-yl)-acetic acid], the figure is 10 to 100 µM; as for `O=C(O)Cc1cc(OCc2ccccc2)cc(-c2ccc(Cl)cc2)c1` [XXIII, (5-Benzyloxy-4′-chloro-biphenyl-3-yl)-acetic acid], 1 to 10 µM; as for `CC(=O)Nc1ccc(-c2cc(CC(=O)O)cc(OCc3ccccc3)c2)cc1` [XXIV, (4′-Acetylamino-5-benzyloxy-biphenyl-3-yl)-acetic acid], 100 to 300 µM.

As for `COc1ccc(-c2cc(CC(=O)O)cc(OCc3ccccc3)c2)cc1` [XXIX, (5-Benzyloxy-4′-methoxy-biphenyl-3-yl)-acetic acid], the IC50 lay within 10 to 100 µM.

`O=C(O)Cc1cc(OCc2ccccc2)cc(-c2ccc(O)cc2)c1` [XXV, (5-Benzyloxy-4′-hydroxy-biphenyl-3-yl)-acetic acid]: the IC50 lay in the range of 100 to 300 µM.

Regarding `CC(C)Oc1ccc(-c2cc(CC(=O)O)cc(OCc3ccccc3)c2)cc1` [XXVI, (5-Benzyloxy-4′-isopropoxy-biphenyl-3-yl)-acetic acid], the concentration for half-maximal inhibition (IC50) is 10 to 100 µM. As for `O=C(O)Cc1cc(OCc2ccccc2)cc(-c2cc(F)cc(F)c2)c1` [XXVII, (5-Benzyloxy-3′,5′-difluoro-biphenyl-3-yl)-acetic acid], the IC50 is 10 to 100 µM.

For orientation: IC50 means the point on the concentration scale where inhibition reaches its midpoint.

Values taken from US7825160B2, “(Biphenyl) carboxylic acids and derivatives thereof” (Cellzome Limited, priority 2004, dated 2010).
